Test: Human HepG2 cell viability assay in 384 well format
Type: toxicity, cell-based
Parameters: dose 125 nL, time 70.5 hour; cytotoxicity at 70.5 h: concentration not given beside the values
Conditions: HepG2 cells, read-out: Inhibition

| SMILES | cytotoxicity at 70.5 h |
| --- | --- |
| Cc1noc(C)c1-c1ccc(C2CCCN2C(=O)Cn2ccnc2)nc1 (stereo not drawn) | 15.1% |
| Cc1nc2ccc(C(=O)N3C[C@@H](O)[C@H](N4CCCC4)C3)cc2[nH]1 | -1.69% |
| Cc1noc(C)c1-c1ccc(C2CCCN2CCC(N)=O)nc1 (stereo not drawn) | -3.28% |
| N[C@@H]1CCC[C@@H](Oc2ccc(F)cc2Oc2ccccc2)[C@@H]1O | 20.8% |
| C[C@]12CCCCN(C(=O)c3ccccn3)[C@H]1CCCC(=O)N2 | 5.15% |
| Cc1ccnn1CCC(=O)N1C[C@@H](O)[C@H](Oc2cccc(F)c2)C1 | -2.79% |
| Cc1sc2c(C3CCCN(C(C)C)C3)nc(C)n2c1C (stereo not drawn) | -3.36% |
| CN1CCCC(c2ccnc(C(=O)NC3CC3)c2)C1 (stereo not drawn) | -3.68% |
| CCCn1ccnc1CN1CCCC1c1cccc(-n2ccnc2)n1 (stereo not drawn) | 11% |
| Cc1ccc(Oc2cc(F)ccc2O[C@@H]2CCC[C@@H](N)[C@H]2O)cc1 | 16% |
| O=S(=O)(c1ccccc1F)N1CCCC(c2nccs2)C1 (stereo not drawn) | -1.24% |
| N[C@@H]1CCC[C@@H](Oc2ccc(F)cc2Oc2cccc(F)c2)[C@@H]1O | -1.82% |
| Cc1nc(C)c(C(=O)N2CCCC2c2nc(O)cc(C(C)C)n2)s1 (stereo not drawn) | -6.05% |
| O=C(N[C@@H]1CCC[C@@H](N2CCCC2)[C@@H]1O)c1cc2ccccc2[nH]1 | -8.28% |
| O=C(N[C@@H]1CCC[C@@H](N2CCOCC2)[C@@H]1O)c1cc2ccccc2[nH]1 | -5.17% |
| Cc1ncc(CN2CCOC(c3ccc(-c4cc[nH]n4)cn3)C2)s1 (stereo not drawn) | -2.9% |
| O=C(NCCO)C1CN(c2cncnc2)CCO1 (stereo not drawn) | -8.3% |
| Cc1cccc(C(=O)N2CCCC[C@]3(C)NC(=O)CCC[C@H]23)n1 | -8.97% |
| Cc1ncc(CN2C[C@H]3C[C@H](OCc4ccccc4)C[C@H]3C2)cn1 | -6.93% |
| Cc1cccc(CC2CCCN(C(=O)C3CCOCC3)C2)n1 (stereo not drawn) | -8.54% |
| COc1cccc(CC(=O)N2CCCC2c2nc(C)c(F)c(O)n2)c1 (stereo not drawn) | -1.47% |
| Cn1ccnc1C(=O)N1CCOC(Cc2ccc(Cl)cc2)C1 (stereo not drawn) | -8.65% |
| Cc1cc(C(N)=O)nc(C2(C)CCCN2Cc2cnn(C)c2C)n1 (stereo not drawn) | -0.0176% |
| CN1CCN(C(=O)C2CCN(c3cccnn3)CC2)CC1 | -5.88% |

| SMILES | cytotoxicity at 70.5 h |
| --- | --- |
| Cc1cc(C)nc(C2CCN(C(=O)c3cnco3)C2)n1 (stereo not drawn) | -6.7% |
| CCCC(=O)N1CCCCC1c1nccc(C)n1 (stereo not drawn) | 8.32% |
| Cc1nc(Nc2nnc(C)s2)cc(C2CCCN2C(C)C)n1 (stereo not drawn) | 5.99% |
| CC(=O)N1CCCC1c1cc(Nc2nnc(C)s2)nc(C)n1 (stereo not drawn) | 17.2% |
| CN1CCC(c2cncc(-c3cccc(Cl)c3)n2)CC1 | -2.71% |
| CCc1nnc(Nc2cccc(C3CCN(S(=O)(=O)N(C)C)CC3)n2)s1 | -6.79% |
| CC(=O)N1CCCC(c2ccnc(N(C)C)n2)C1 (stereo not drawn) | -12.5% |
| Cc1nc(Nc2ncccn2)cc(C2CCCN2C)n1 (stereo not drawn) | -7.58% |
| Cc1nc(Nc2nnc(C)s2)cc(C2CCCN2c2ccncc2)n1 (stereo not drawn) | -5.11% |
| NC(=O)CN1CCCCC1c1nc(N)ncc1-c1cccc(F)c1 (stereo not drawn) | -4.69% |
| CC(C#N)CN(C)C(=O)CCNC(=O)OC(C)(C)C (stereo not drawn) | -6.35% |
| CC(C#N)CN(C)C(=O)CCNC(=O)OCC(F)(F)F (stereo not drawn) | -0.113% |
| CN1CCOC(CNCc2cnc(C(C)(C)C)s2)C1 (stereo not drawn) | 0.446% |
| Cc1nc(CN2CCOC3(CCCC3)C2)no1 | -5.91% |
| C1CC(CN2CCCCC2C2OCCO2)C1 (stereo not drawn) | 3.56% |
| CC(C)C(NCc1ccc(Cn2cncn2)cc1)c1ccc(F)cn1 (stereo not drawn) | -0.795% |
| C(=C\c1ccccc1)/CNCC1CCc2nncn2C1 (stereo not drawn) | 5.32% |
| Cc1cc(NC(=O)CN2CCOC(CN(C)C)C2)n(C)n1 (stereo not drawn) | 17.6% |
| CN1CCN(C)C(CNC(=O)N(C)Cc2ccccc2Cl)C1 (stereo not drawn) | -0.256% |
| CN1CCN(S(=O)(=O)c2ccc(Sc3nccn3C)nc2)CC1 | 21.6% |
| O=C(CCOCc1ccccc1)NS(=O)(=O)N1CCOc2ccccc21 | 11% |
| O=C(CCc1ccco1)NS(=O)(=O)N1CCOc2ccccc21 | -1.31% |
| CC(O)CN(C(=O)NC1CC1)C(C)C (stereo not drawn) | 29.8% |
| CS(=O)(=O)CCn1ccc(NC(=O)Cc2ccccc2F)n1 | 3.54% |

| SMILES | cytotoxicity at 70.5 h |
| --- | --- |
| Cn1ccc(NC(=O)Cc2ccccc2F)n1 | 19.9% |
| CC(C)N(CC(C)(C)O)C(=O)NC1CC1 | 20.8% |
| CCN(CC)S(=O)(=O)NCC(O)c1c(Cl)cccc1Cl (stereo not drawn) | 8.36% |
| CC(O)CN(C(=O)NC1CCN(CC2CCCCC2)CC1)C(C)C (stereo not drawn) | 1.48% |
| Cn1c(NCc2ccc(C(N)=O)cc2)nc2cc(Cl)ccc21 | 18.9% |
| CCOC(C)c1nccn1CC(=O)Nc1cc(C)on1 (stereo not drawn) | -0.0484% |
| CCc1nc(NS(=O)(=O)c2cccc(F)c2C)no1 | 7% |
| CS(=O)(=O)CCn1ccc(NC(=O)c2c(F)cccc2F)n1 | -12.1% |
| O=S(=O)(N1CCCCC1)N1CCCN(CC2CCCO2)CC1 (stereo not drawn) | 1.43% |
| Cn1cc(CNC2CCCOc3c(Cl)cccc32)cn1 (stereo not drawn) | 3.49% |
| O=S(=O)(N1CCCC1)N1CCN(CC2CCCO2)CC1 (stereo not drawn) | -3.59% |
| CC(C)(C)c1cc(NC(=O)CNC2CCc3ncnn3C2)on1 (stereo not drawn) | -11.9% |
| CCOC(C)c1nccn1Cc1noc(CC)n1 (stereo not drawn) | 16.7% |
| O=C(CSCc1ccccn1)NCC1CCN(C2CC2)C1 (stereo not drawn) | 0.243% |
| CCCn1ccnc1SCC(=O)NC(Cc1ccccc1)C(C)=O (stereo not drawn) | 1.89% |
| Cc1cc(N(Cc2cccs2)C2CC2)n2nc(C(F)(F)F)nc2n1 | -1.76% |
| CC(C)c1noc(CNc2ccccc2CC(=O)N(C)C)n1 | -2.98% |
| Cc1ccc(NCc2ccc(C#N)cc2)cc1-n1cnnn1 | 10.5% |
| CC(C)(C)c1nc(CN2CCC(N3CCCCC3)CC2)no1 | -2.12% |
| Cc1[nH]ncc1CCCNC(=O)N1CCC(CC(N)=O)CC1 | -0.905% |
| Fc1cccc2c1CCC2NCc1ccc(N2CCOCC2)cc1 (stereo not drawn) | 1.27% |
| CN1CCN(C2CCN(Cc3noc(C(C)(C)C)n3)CC2)C1=O | 9.12% |
| CN1CCN(C2CCN(Cc3noc(-c4ccccc4)n3)CC2)C1=O | -3.63% |
| CC(C)(C)c1n[nH]c(C2CN(CCNC3CCCCC3)CCO2)n1 (stereo not drawn) | -1.09% |

| SMILES | cytotoxicity at 70.5 h |
| --- | --- |
| CC(C)(C)c1n[nH]c(C2CN(CC3CCC3)CCO2)n1 (stereo not drawn) | -0.868% |
| CN(C)C(=O)Cc1ccccc1NCc1noc(-c2ccccc2)n1 | 2.37% |
| COc1ccc(C(=O)NS(=O)(=O)c2ccc(CNC(C)=O)s2)cc1 | -4.22% |
| Cc1nc(C)c(C(=O)N2CCc3ccc(F)cc3C2C)o1 (stereo not drawn) | -0.841% |
| O=C(c1cccnc1N1CCCC1)N1CCOC(c2ccccc2)C1 (stereo not drawn) | -2.27% |
| CCC(O)(CNCc1ccncc1)c1ccc(Br)cc1 (stereo not drawn) | 1.46% |
| CC(=O)NCc1ccc(S(=O)(=O)NC(=O)c2ccc3c(c2)CCO3)s1 | -2.05% |
| CC(C)(C)c1n[nH]c(C2CN(CCc3ccncc3)CCO2)n1 (stereo not drawn) | 0.424% |
| Cc1nc(C)c(C(=O)N2Cc3cc(F)ccc3CC2C)o1 (stereo not drawn) | -3.47% |
| CCOCC(=O)N1CCC(C(O)c2ccc(F)cc2)CC1 (stereo not drawn) | 2.49% |
| Fc1ccc(CNCc2cc(Br)c3c(c2)OCO3)cc1 | 7.59% |
| FC(F)Oc1ccccc1CNCc1cc(Br)c2c(c1)OCO2 | -7.29% |
| COc1ccccc1CC1CCCN(C(=O)c2cn[nH]c2C)C1 (stereo not drawn) | -10.8% |
| CC(O)CN(Cc1cccc(C(N)=O)c1)c1ccccc1 (stereo not drawn) | -7.27% |
| Oc1cccc(CNCC2CCCO2)c1 (stereo not drawn) | 10.4% |
| Cc1ccc(C(=O)NCCS(=O)(=O)N2CCSCC2)n1C | -2.8% |
| Cc1ccoc1C(=O)NCCS(=O)(=O)N1CCSCC1 | 5.89% |
| CCc1ccc(C(COC)NC(=O)c2ccc(NC(C)=O)cc2)o1 (stereo not drawn) | -8.16% |
| CCc1ccc(C(COC)NC(=O)c2ccc(C(N)=O)cc2)o1 (stereo not drawn) | 7.28% |
| COCCC1(CNC(=O)Nc2ccc(-n3ccnn3)cc2)CCC1 | 4.76% |
| CC1(C)CN(C(=O)c2occc2COc2cccc(C#N)c2)CCO1 | 3.19% |
| Cc1nc(CN2CCc3c(nc(C4CC4)n3C)C2)nc2ccccc12 | -5.35% |
| Cc1ccc(CN(Cc2cc(C)no2)C2CC2)cc1 | -3.87% |
| CC(CNC(=O)c1cnccn1)Oc1ccc(F)cc1 (stereo not drawn) | -8.73% |

| SMILES | cytotoxicity at 70.5 h |
| --- | --- |
| CC(NC(=O)CN1CCN(c2cccc(Cl)c2)CC1)c1ccco1 (stereo not drawn) | -5.94% |
| N#Cc1csc(CNCCOc2ccc(Cl)cn2)c1 | -5.85% |
| CCCN(Cc1ccccc1O)S(=O)(=O)C(C)CC (stereo not drawn) | -5.52% |
| COCCSCC(=O)NCc1ccc(N(C)C)cc1 | -0.963% |
| CC(=O)c1cc(C(=O)N2CCN(C)Cc3ccccc32)n(C)c1 | -3% |
| Cc1nc(CN2CCCN(Cc3nc4ccccc4o3)CC2)no1 | -8.61% |
| CC(c1ccc(S(N)(=O)=O)cc1)N(C)C(=O)c1ccccc1I (stereo not drawn) | -5.97% |
| CCc1ccc(S(=O)(=O)Nc2ccn(CC(=O)OC)n2)cc1 | -4.63% |
| Cc1ccc(N(CC(=O)N2CCCCC2)C(=O)C2CCCO2)cc1 (stereo not drawn) | -1.14% |
| CC(C)COCCNC(=O)NC1CCCN(c2cnn(C)c2)C1 (stereo not drawn) | -0.131% |
| O=C(NCCOc1ccc(Cl)cn1)Nc1cccnc1 | -0.774% |
| O=C(NCCOc1ccc(Cl)cn1)Nc1ccccn1 | 0.428% |
| O=C(c1cnc(-c2ccco2)s1)N1CCOc2ncccc21 | -1.16% |
| CCCc1ncc(C(=O)N2CCOc3ncccc32)s1 | -2.81% |
| CN1CCOC(CNCCOc2cccc(C#N)c2)C1 (stereo not drawn) | -7.36% |
| CC(C)(C)OCCN1CCCC1c1nc(Cc2ccc(F)cc2)no1 (stereo not drawn) | 11.6% |
| Cc1cc(C(=O)N2CCc3nc(C4CCCN4)ncc3C2)cs1 (stereo not drawn) | -4.19% |
| CNCC(=O)N1CC(c2cc(Nc3nc(C)cs3)nc(C)n2)C1 | -12.3% |
| Clc1ccccc1CN1CCc2nc(C3CCCNC3)ncc2C1 (stereo not drawn) | -7.56% |
| CC(C)C[C@H](N)C(=O)N1CCSc2ccccc2C1 | 0.624% |
| Clc1ccc(C2(CNC3=NCCN3)CC2)cc1 | 10% |
| Fc1ccc(C2(CNC3=NCCN3)CCCC2)cc1 | 3.33% |
